# Literature values, collected in US12442091B2, “Electrochemical dehydrogenation, epoxidation, substitution, and halogenation of hydrocarbons and hydrocarbon derivatives” (Wisconsin Alumni Research Foundation, priority 2020, dated 2025).
row,SMILES,solubility in water [µg/mL]
1,CC(C)Br [2-bromopropane],3200
2,C=CC [propene],384
